Data: ChEMBL document CHEMBL1139555, “Discovery of potent and selective phenylalanine based dipeptidyl peptidase IV inhibitors” (Bioorg Med Chem Lett, 2005)

What was measured:
[1] = Plasma cearance of compound was determined in rat; type: ADME, organism-based; details: read-out: Clp
Dipeptidyl peptidase 4 = Dipeptidyl peptidase 4 (Homo sapiens, UniProt P27487)
Dipeptidyl peptidase 9 = Dipeptidyl peptidase 9 (Homo sapiens, UniProt Q86TI2)
Dipeptidyl peptidase 2 = Dipeptidyl peptidase 2 (Homo sapiens, UniProt Q9UHL4)
Dipeptidyl peptidase 8 = Dipeptidyl peptidase 8 (Homo sapiens, UniProt Q6V1X1)
[2] = molecular target: Voltage-gated inwardly rectifying potassium channel KCNH2 (Homo sapiens, UniProt Q12809)
[3] = Oral bioavailability in rat; type: ADME, organism-based; details: in vivo
[4] = Plasma half-life of compound was determined in rat; type: ADME, cell-free

Dipeptidyl peptidase 8, sequence (Q6V1X1 whole entry): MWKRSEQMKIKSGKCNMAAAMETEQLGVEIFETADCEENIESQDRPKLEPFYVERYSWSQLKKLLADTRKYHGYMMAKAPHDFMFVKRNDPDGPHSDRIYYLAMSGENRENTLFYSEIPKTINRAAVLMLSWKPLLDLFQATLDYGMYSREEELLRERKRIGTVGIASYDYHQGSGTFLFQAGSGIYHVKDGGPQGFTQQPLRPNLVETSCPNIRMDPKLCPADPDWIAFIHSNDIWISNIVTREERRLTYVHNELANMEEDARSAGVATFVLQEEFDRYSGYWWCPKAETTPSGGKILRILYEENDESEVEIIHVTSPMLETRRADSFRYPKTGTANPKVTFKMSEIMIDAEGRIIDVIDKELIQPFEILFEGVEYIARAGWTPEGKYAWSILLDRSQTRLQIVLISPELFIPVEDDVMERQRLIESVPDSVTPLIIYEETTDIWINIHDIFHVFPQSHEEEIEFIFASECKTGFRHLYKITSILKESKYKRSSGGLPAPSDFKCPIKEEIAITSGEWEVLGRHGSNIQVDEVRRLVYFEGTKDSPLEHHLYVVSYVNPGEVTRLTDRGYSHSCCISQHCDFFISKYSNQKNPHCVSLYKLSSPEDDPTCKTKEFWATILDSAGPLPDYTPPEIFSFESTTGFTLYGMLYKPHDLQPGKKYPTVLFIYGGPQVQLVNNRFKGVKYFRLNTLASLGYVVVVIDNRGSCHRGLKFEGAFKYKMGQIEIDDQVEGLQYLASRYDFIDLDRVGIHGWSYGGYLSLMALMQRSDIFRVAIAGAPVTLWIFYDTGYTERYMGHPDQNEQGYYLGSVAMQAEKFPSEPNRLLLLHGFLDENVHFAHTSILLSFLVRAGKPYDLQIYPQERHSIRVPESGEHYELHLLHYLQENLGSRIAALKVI
Dipeptidyl peptidase 4, sequence (P27487 whole entry): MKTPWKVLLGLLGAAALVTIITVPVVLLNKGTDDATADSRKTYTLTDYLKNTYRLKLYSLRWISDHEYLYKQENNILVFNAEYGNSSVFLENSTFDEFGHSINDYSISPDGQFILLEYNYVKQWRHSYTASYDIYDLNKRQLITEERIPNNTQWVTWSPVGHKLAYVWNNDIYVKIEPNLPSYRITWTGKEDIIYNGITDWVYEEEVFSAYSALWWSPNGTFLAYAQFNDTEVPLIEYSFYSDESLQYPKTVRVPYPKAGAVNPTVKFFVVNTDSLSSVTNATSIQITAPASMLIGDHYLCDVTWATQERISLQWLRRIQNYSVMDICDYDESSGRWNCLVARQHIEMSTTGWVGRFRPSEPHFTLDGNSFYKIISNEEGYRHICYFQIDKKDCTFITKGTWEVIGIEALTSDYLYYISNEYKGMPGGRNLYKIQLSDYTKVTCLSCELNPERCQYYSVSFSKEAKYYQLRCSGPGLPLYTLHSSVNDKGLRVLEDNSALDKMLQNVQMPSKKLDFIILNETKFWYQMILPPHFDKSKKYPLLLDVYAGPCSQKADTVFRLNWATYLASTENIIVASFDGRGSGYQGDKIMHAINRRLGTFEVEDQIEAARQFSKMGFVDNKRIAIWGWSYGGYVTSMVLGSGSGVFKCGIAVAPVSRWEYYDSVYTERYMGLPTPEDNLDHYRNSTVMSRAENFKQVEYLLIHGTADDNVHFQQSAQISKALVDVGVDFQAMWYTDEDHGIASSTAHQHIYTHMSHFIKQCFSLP
Dipeptidyl peptidase 9, sequence (Q86TI2 whole entry): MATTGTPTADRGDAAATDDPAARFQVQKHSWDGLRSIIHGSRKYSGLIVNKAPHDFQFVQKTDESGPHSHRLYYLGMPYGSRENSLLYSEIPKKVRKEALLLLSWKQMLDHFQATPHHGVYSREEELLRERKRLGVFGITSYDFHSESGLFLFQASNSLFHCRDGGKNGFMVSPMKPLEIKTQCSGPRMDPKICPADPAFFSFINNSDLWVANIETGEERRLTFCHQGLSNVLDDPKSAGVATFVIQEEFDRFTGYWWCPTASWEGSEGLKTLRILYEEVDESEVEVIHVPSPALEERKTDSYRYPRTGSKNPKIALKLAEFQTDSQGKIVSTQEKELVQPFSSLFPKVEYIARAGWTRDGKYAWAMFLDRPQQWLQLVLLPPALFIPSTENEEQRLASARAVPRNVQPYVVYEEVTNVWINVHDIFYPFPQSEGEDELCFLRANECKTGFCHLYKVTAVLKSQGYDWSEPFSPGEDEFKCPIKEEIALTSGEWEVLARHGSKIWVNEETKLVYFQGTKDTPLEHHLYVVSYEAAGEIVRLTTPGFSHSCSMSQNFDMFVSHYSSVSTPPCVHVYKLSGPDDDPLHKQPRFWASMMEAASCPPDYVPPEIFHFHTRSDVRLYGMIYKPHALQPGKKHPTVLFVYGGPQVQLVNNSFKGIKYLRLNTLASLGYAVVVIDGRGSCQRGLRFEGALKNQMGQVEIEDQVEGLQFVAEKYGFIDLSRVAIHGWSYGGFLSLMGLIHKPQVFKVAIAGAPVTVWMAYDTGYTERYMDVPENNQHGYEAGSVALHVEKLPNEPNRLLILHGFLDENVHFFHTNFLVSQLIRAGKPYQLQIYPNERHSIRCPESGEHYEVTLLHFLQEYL
Voltage-gated inwardly rectifying potassium channel KCNH2, sequence (Q12809 whole entry): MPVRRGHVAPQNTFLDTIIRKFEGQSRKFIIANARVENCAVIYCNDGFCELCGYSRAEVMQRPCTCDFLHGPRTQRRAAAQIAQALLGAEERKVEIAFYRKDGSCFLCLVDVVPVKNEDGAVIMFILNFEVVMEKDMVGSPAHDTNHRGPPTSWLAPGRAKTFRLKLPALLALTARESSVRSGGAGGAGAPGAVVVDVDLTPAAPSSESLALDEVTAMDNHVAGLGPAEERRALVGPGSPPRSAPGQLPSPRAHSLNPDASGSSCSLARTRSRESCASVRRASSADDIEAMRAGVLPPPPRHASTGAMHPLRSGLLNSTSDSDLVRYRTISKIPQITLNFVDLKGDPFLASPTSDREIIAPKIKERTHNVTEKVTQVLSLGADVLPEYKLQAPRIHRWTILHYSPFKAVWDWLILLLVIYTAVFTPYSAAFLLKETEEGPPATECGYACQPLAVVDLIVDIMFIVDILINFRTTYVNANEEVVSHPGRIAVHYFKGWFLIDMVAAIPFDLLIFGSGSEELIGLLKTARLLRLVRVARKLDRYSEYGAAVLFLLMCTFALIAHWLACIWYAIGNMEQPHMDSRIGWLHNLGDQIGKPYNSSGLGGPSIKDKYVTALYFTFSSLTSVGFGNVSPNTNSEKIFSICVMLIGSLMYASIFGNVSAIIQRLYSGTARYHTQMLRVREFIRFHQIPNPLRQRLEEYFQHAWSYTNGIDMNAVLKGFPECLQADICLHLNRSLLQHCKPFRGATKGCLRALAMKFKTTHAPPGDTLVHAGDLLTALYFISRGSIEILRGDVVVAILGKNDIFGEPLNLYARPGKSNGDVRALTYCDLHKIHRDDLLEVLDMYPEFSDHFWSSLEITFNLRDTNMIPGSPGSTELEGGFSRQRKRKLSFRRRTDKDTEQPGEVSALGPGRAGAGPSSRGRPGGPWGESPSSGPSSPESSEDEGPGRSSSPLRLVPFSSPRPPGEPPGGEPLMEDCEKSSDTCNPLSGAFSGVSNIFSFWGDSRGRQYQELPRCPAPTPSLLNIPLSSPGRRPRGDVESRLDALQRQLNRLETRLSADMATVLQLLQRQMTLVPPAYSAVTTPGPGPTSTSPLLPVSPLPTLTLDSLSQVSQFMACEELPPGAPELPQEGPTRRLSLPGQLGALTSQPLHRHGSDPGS

clearance [1]	IC50 (Dipeptidyl peptidase 4)	IC50 (Dipeptidyl peptidase 9)	IC50 (Dipeptidyl peptidase 2)	IC50 (Dipeptidyl peptidase 8)	bioavailability [3]	half-life [4]	Compound	IC50 [2]
1.43 L/h/kg	0.003 µM	> 100 µM	1.1 µM	> 100 µM	4.2%	66 min	C[C@@H](c1ccc(-c2cccc(-c3noc(O)n3)c2)cc1)[C@H](N)C(=O)N1CC[C@H](F)C1.O=C(O)C(F)(F)F	28 µM
3.05 L/h/kg	0.056 µM	> 100 µM	9.2 µM	> 100 µM	2.3%	24 min	C[C@@H](c1ccc(-c2cccc(C(=O)O)c2)cc1)[C@H](N)C(=O)N1CC[C@H](F)C1.O=C(O)C(F)(F)F	
